We go through 41 compounds from patent publication US7902373B2 (Pfizer Inc, priority 2006, dated 2011).

The test deals with human recombinant H-PGDS (Homo sapiens, UniProt O60760). In words: Fluorescence intensity h-PGDS TBA enzyme assay. The format is biochemical. The note with it: Examples up to 622 (and 3a, 3b).
Chain of human recombinant H-PGDS (O60760 whole entry): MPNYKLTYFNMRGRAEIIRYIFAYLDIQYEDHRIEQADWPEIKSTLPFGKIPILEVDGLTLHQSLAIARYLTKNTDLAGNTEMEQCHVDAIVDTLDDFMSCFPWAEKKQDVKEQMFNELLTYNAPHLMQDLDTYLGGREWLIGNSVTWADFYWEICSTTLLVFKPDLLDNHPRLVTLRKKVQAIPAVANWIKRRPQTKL
In general, IC50 refers to the concentration that inhibits the measured activity by half. On to `CC(C)(C)OC(=O)N1C[C@H](O)[C@H](NC(=O)c2ccc(-c3cccc(F)c3)nc2)C1` (relative stereo) [Example 609, cis-tert-Butyl 3-({[6-(3-fluorophenyl)pyridin-3-yl]carbonyl}amino)-4-hydroxypyrrolidine-1-carboxylate], for which the IC50 is 5.43 nM.
The result for `CC(C)(C)OC(=O)N1C[C@@H](O)[C@H](NC(=O)c2ccc(-c3cccc(F)c3)nc2)C1` (relative stereo) [Example 610, Trans-tert-Butyl 3-({[6-(3-fluorophenyl)pyridin-3-yl]carbonyl}amino)-4-hydroxypyrrolidine-1-carboxylate] reads 6.92 nM.
Under `CC(C)(C)C(=O)N1C[C@@H](O)[C@H](NC(=O)c2ccc(-c3cccc(F)c3)nc2)C1` (relative stereo) [Example 612, Trans-N-[1-(2,2-dimethylpropanoyl)-4-hydroxypyrrolidin-3-yl]-6-(3-fluorophenyl)nicotinamide] stands 12 nM; under `O=C(N[C@H]1CN(c2cnc3ccccc3n2)C[C@@H]1O)c1ccc(-c2cccc(F)c2)nc1` (relative stereo) [Example 613, trans-6-(3-Fluorophenyl)-N-[4-hydroxy-1-quinoxalin-2-ylpyrrolidin-3-yl]nicotinamide], 3.57 nM.
Under `CCc1cn2nc(N3C[C@H](NC(=O)c4ccc(-c5cccc(F)c5)nc4)[C@@H](O)C3)ccc2n1` (relative stereo) [Example 614, Trans-N-[1-(2-ethylimidazo[12-b]pyridazin-6-yl)-4-hydroxypyrrolidin-3-yl]-6-(3-fluorophenyl)nicotinamide] stands 52.5 nM; under `Cc1cc(C)c(C#N)c(N2C[C@@H](O)[C@H](NC(=O)c3ccc(-c4cccc(F)c4)nc3)C2)n1` (relative stereo) [Example 615, Trans-N-[1-(3-cyano-4,6-dimethylpyridin-2-yl)-4-hydroxypyrrolidin-3-yl]-6-(3-fluorophenyl)nicotinamide], 5.1 nM; under `O=C(N[C@@H]1CN(c2nc3ccccc3o2)C[C@H]1O)c1ccc(-c2cccc(F)c2)nc1` (relative stereo) [Example 616, Trans-N-[1-(1,3-benzoxazol-2-yl)-4-hydroxypyrrolidin-3-yl]-6-(3-fluorophenyl)nicotinamide], 5.12 nM.
Take `Cc1ccc(C#N)c(N2C[C@H](NC(=O)c3ccc(-c4cccc(F)c4)nc3)[C@@H](O)C2)n1` (relative stereo) [Example 617]: the IC50 is 4.1 nM.
Under `O=C(N[C@@H]1CN(c2ncc3ccc(F)cc3n2)C[C@H]1O)c1ccc(-c2cccc(F)c2)nc1` (relative stereo) [Example 618, Trans-6-(3-fluorophenyl)-N-[1-(7-fluoroquinazolin-2-yl)-4-hydroxypyrrolidin-3-yl]nicotinamide] stands 7.33 nM; under `O=C(N[C@@H]1CN(c2nnnn2-c2ccccc2)C[C@H]1O)c1ccc(-c2cccc(F)c2)nc1` (relative stereo) [Example 619, Trans-6-(3-fluorophenyl)-N-[4-hydroxy-1-(1-phenyl-1H-tetrazol-5-yl)pyrrolidin-3-yl]nicotinamide], 1.19 nM.
Under `CCC(CO)n1cnc2c(N3CCC(NC(=O)c4ccc(-c5cccc(F)c5)nc4)CC3)ncnc21` (single isomer, unassigned) [Example 581, 6-(3-Fluorophenyl)-N-(1-{9-[1-(hydroxymethyl)propyl]-9H-purin-6-yl}piperidin-4-yl)nicotinamide] stands 0.69 nM; under `CCC(CO)n1cnc2c(N3CCC(NC(=O)c4ccc(-c5cccc(F)c5)nc4)CC3)ncnc21` (single isomer, unassigned) [Example 582, 6-(3-Fluorophenyl)-N-(1-{9-[1-(hydroxymethyl)propyl]-9H-purin-6-yl}piperidin-4-yl)nicotinamide], 1.22 nM; under `O=C(NC1CCN(CC(F)(F)F)CC1)c1ccc(-c2ccccc2)nc1` [Example 1, 6-Phenyl-N-(1-(2,2,2-trifluoroethyl)piperidin-4-yl)nicotinamide], 0.204 nM.
Regarding `O=C(NC1CCN(c2ccc(C(=O)N3CCOCC3)cn2)CC1)c1ccc(-c2cccc(F)c2)nc1` [Example 3, 6-(3-Fluorophenyl)-N-{1-[5-(morpholin-4-ylcarbonyl)pyridin-2-yl]piperidin-4-yl}nicotinamide], the IC50 worked out at 0.343 nM.
As for `CN1CCC(NC(=O)c2ccc(-c3ccccc3)nc2)CC1` [Example 3a, N-(1-Methylpiperidin-4-yl)-6-phenylnicotinamide], the IC50 was 6.86 nM.
Under `CCOC(=O)N1CCC(NC(=O)c2ccc(-c3ccccc3)nc2)CC1` [Example 3b, Ethyl 4-{[(6-phenylpyridin-3-yl)carbonyl]amino}piperidine-1-carboxylate] stands 0.403 nM.
The result for `CC(C)N1CCC(NC(=O)c2ccc(-c3ccccc3)nc2)CC1` [Example 4, N-(1-Isopropylpiperidin-4-yl)-6-phenylnicotinamide] reads 2.58 nM; that for `O=C(NC1CCN(Cc2ccccn2)CC1)c1ccc(-c2ccccc2)nc1` [Example 5, 6-Phenyl-N-[1-(pyridin-2-ylmethyl)piperidin-4-yl]nicotinamide], 0.665 nM; that for `O=C(NC1CCN(CC2CCOCC2)CC1)c1ccc(-c2ccccc2)nc1` [Example 6, 6-Phenyl-N-[1-(tetrahydro-2H-pyran-4-ylmethyl)piperidin-4-yl]nicotinamide], 0.377 nM.
Regarding `CC(C)(C)C(=O)N1CCC(NC(=O)c2ccc(-c3ccccc3)nc2)CC1` [Example 7, N-[1-(2,2-Dimethylpropanoyl)piperidin-4-yl]-6-phenylnicotinamide], the IC50 came to 0.351 nM.
The result for `O=C(NC1CCN(Cc2ccccc2)CC1)c1ccc(-c2ccccc2)nc1` [Example 8, N-(1-Benzylpiperidin-4-yl)-6-phenylnicotinamide] reads 1.57 nM.
Under `O=C(NC1CCN(CC(F)(F)F)CC1)c1ccc(-c2ccc(F)cc2)nc1` [Example 9, 6-(4-Fluorophenyl)-N-(1-(2,2,2-trifluoroethyl)piperidin-4-yl)nicotinamide] stands 23.6 nM.
Under `CCCC(=O)N1CCC(NC(=O)c2ccc(-c3ccc(F)cc3)nc2)CC1` [Example 10, N-(1-Butyrylpiperidin-4-yl)-6-(4-fluorophenyl)nicotinamide] stands 78.4 nM; under `O=C(NC1CCN(Cc2ccccn2)CC1)c1ccc(-c2ccc(F)cc2)nc1` [Example 11, 6-(4-Fluorophenyl)-N-[1-(pyridin-2-ylmethyl)piperidin-4-yl]nicotinamide], 39.4 nM.
Consider `CN1CCC(NC(=O)c2ccc(-c3ccc(F)cc3)nc2)CC1` [Example 12, 6-(4-Fluorophenyl)-N-(1-methylpiperidin-4-yl)nicotinamide], for which the IC50 is 694 nM.
Regarding `O=C(NC1CCN(Cc2ccccc2)CC1)c1ccc(-c2ccc(F)cc2)nc1` [Example 13, N-(1-Benzylpiperidin-4-yl)-6-(4-fluorophenyl)nicotinamide], the half-maximal inhibitory concentration (IC50) came out at 58 nM.
As to `COc1cccc(-c2ccc(C(=O)NC3CCN(CC(F)(F)F)CC3)cn2)c1` [Example 14, 6-(3-Methoxyphenyl)-N-(1-(2,2,2-trifluoroethyl)piperidin-4-yl)nicotinamide], the IC50 was found to be 4.29 nM.
Under `COc1cccc(-c2ccc(C(=O)NC3CCN(Cc4ccccn4)CC3)cn2)c1` [Example 15, 6-(3-Methoxyphenyl)-N-[1-(pyridin-2-ylmethyl)piperidin-4-yl]nicotinamide] stands 2.91 nM.
Consider `COc1cccc(-c2ccc(C(=O)NC3CCN(C)CC3)cn2)c1` [Example 16, 6-(3-Methoxyphenyl)-N-(1-methylpiperidin-4-yl)nicotinamide], for which the IC50 came to 146 nM.
Consider `COc1cccc(-c2ccc(C(=O)NC3CCN(Cc4ccccc4)CC3)cn2)c1` [Example 17, N-(1-Benzylpiperidin-4-yl)-6-(3-methoxyphenyl)nicotinamide], for which the IC50 is 11.7 nM.
As for `CCOC(=O)N1CCC(NC(=O)c2ccc(-c3cccc(OC)c3)nc2)CC1` [Example 18, Ethyl 4-({[6-(3-methoxyphenyl)pyridin-3-yl]carbonyl}amino)piperidine-1-carboxylate], the half-maximal inhibitory concentration (IC50) was found to be 3.94 nM.
In the case of `CCCC(=O)N1CCC(NC(=O)c2ccc(-c3cccc(OC)c3)nc2)CC1` [Example 19, N-(1-Butyrylpiperidin-4-yl)-6-(3-methoxyphenyl)nicotinamide], the IC50 came out at 36.2 nM.
As for `COc1cccc(-c2ccc(C(=O)NC3CCN(C(C)C)CC3)cn2)c1` [Example 20, N-(1-Isopropylpiperidin-4-yl)-6-(3-methoxyphenyl)nicotinamide], the IC50 came out at 1000 nM.
For `Cc1cccc(-c2ccc(C(=O)NC3CCN(CC(F)(F)F)CC3)cn2)c1` [Example 21, 6-m-Tolyl-N-(1-(2,2,2-trifluoroethyl)piperidin-4-yl)nicotinamide], the IC50 is 0.898 nM.
The result for `Cc1cccc(-c2ccc(C(=O)NC3CCN(C)CC3)cn2)c1` [Example 22, 6-(3-Methylphenyl)-N-(1-methylpiperidin-4-yl)nicotinamide] reads 73.3 nM; that for `Cc1cccc(-c2ccc(C(=O)NC3CCN(Cc4ccccc4)CC3)cn2)c1` [Example 23, N-(1-Benzylpiperidin-4-yl)-6-(3-methylphenyl)nicotinamide], 1.72 nM.
Under `CCCC(=O)N1CCC(NC(=O)c2ccc(-c3cccc(C)c3)nc2)CC1` [Example 24, N-(1-Butyrylpiperidin-4-yl)-6-(3-methylphenyl)nicotinamide] stands 2.64 nM; under `Cc1cccc(-c2ccc(C(=O)NC3CCN(C(C)C)CC3)cn2)c1` [Example 25, N-(1-Isopropylpiperidin-4-yl)-6-(3-methylphenyl)nicotinamide], 7.66 nM; under `CN1CCC(NC(=O)c2ccc(-c3cccc(F)c3)nc2)CC1` [Example 27, 6-(3-Fluorophenyl)-N-(1-methylpiperidin-4-yl)nicotinamide], 19.1 nM.
Take `O=C(NC1CCN(Cc2ccccn2)CC1)c1ccc(-c2cccc(F)c2)nc1` [Example 28, 6-(3-Fluorophenyl)-N-[1-(pyridin-2-ylmethyl)piperidin-4-yl]nicotinamide]: the IC50 was 1.72 nM.
On to `O=C(NC1CCN(Cc2ccccc2)CC1)c1ccc(-c2cccc(F)c2)nc1` [Example 29, N-(1-Benzylpiperidin-4-yl)-6-(3-fluorophenyl)nicotinamide], for which the IC50 turned out to be 0.946 nM.
